2 compounds from ChEMBL document CHEMBL3046924 (Biochemistry, 2004) can be followed below.

The source made the active and inactive calls. The rule behind the calls is not given here.

Test [1] concerns the target 4-hydroxyphenylpyruvate dioxygenase (Rattus norvegicus) (UniProt P32755). The experiment in a line: Inhibition of Rattus norvegicus (rat) 4-hydroxyphenylpyruvate dioxygenase assessed as formation of homogentisate upto 20 uM by HGA dioxygenase coupling enzyme assay.
The target in test [2] is 4-hydroxyphenylpyruvate dioxygenase (Rattus norvegicus, UniProt P32755). The experiment in a line: Inhibition of Rattus norvegicus (rat) 4-hydroxyphenylpyruvate dioxygenase assessed as formation of homogentisate by HGA dioxygenase coupling enzyme assay. As to conditions: read-out: I50.
The target in test [3] is T1, 4-hydroxyphenylpyruvate dioxygenase (Arabidopsis thaliana, UniProt P93836).
T1 sequence (P93836 whole entry): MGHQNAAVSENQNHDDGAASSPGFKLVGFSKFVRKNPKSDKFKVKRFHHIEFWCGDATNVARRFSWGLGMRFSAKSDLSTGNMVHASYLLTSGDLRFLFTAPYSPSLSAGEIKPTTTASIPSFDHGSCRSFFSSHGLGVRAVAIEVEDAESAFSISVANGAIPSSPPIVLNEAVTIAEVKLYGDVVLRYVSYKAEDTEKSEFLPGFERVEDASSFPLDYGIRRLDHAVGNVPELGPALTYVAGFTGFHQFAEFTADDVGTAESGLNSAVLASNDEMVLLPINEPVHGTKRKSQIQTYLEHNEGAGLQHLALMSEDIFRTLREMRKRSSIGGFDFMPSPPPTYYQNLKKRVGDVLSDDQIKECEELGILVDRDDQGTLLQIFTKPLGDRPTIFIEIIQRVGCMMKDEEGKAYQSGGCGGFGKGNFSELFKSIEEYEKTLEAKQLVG
Description: Inhibition of Arabidopsis thaliana 4-hydroxyphenylpyruvate dioxygenase assessed as formation of homogentisate by HGA dioxygenase coupling enzyme assay. The following applies: read-out: I50.

4-hydroxyphenylpyruvate dioxygenase (Rattus norvegicus), sequence (P32755 whole entry): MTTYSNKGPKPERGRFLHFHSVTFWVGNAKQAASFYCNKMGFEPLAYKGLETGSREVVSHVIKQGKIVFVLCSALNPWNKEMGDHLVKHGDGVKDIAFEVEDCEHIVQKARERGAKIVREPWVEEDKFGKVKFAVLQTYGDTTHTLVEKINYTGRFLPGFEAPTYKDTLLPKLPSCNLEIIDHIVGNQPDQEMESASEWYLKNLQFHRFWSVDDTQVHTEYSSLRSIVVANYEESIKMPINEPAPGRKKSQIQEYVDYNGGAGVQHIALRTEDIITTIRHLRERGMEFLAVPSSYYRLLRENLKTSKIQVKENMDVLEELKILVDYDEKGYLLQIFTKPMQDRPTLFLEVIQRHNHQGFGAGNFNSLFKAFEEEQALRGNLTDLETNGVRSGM
4-hydroxyphenylpyruvate dioxygenase (Rattus norvegicus, UniProt P32755), sequence (P32755 whole entry): as above

For `CC(C)(C)n1nc(-c2ccc(Cl)cc2Cl)c(C(=O)c2ccc(S(C)(=O)=O)cc2Cl)c1O`, in test [1], the inhibition entry was “inactive”. Turning to `COc1ccc(-c2c(S(C)(=O)=O)ccc(C(=O)c3cnn(C(C)(C)C)c3O)c2C)cc1`, the IC50 in test [2] was less than 20 nM; in test [3] it was 7 nM.
